The text below walks through data of ChEMBL document CHEMBL1129928, “Selectin-ligand interactions revealed by molecular dynamics simulation in solution” (J Med Chem, 1997).

Holding throughout (format): cell-based, Endothelial cell
The target in one test is T1, L-selectin (Homo sapiens, UniProt P14151).
T1 sequence (P14151 whole entry): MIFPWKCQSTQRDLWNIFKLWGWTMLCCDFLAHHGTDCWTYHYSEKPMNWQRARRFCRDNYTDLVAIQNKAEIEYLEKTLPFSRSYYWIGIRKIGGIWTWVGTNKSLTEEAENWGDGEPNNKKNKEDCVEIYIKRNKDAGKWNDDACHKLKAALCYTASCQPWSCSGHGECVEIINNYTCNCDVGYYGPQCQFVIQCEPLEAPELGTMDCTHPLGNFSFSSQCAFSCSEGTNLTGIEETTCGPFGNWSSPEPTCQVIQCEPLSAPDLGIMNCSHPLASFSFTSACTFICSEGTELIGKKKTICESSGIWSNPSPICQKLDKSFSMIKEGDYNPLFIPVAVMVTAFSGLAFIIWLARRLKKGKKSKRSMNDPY
In words: Inhibitory activity against Selectin L expressed in endothelial cells.

A further test addresses T2, P-selectin (Homo sapiens, UniProt P16109).
T2 sequence (P16109 whole entry): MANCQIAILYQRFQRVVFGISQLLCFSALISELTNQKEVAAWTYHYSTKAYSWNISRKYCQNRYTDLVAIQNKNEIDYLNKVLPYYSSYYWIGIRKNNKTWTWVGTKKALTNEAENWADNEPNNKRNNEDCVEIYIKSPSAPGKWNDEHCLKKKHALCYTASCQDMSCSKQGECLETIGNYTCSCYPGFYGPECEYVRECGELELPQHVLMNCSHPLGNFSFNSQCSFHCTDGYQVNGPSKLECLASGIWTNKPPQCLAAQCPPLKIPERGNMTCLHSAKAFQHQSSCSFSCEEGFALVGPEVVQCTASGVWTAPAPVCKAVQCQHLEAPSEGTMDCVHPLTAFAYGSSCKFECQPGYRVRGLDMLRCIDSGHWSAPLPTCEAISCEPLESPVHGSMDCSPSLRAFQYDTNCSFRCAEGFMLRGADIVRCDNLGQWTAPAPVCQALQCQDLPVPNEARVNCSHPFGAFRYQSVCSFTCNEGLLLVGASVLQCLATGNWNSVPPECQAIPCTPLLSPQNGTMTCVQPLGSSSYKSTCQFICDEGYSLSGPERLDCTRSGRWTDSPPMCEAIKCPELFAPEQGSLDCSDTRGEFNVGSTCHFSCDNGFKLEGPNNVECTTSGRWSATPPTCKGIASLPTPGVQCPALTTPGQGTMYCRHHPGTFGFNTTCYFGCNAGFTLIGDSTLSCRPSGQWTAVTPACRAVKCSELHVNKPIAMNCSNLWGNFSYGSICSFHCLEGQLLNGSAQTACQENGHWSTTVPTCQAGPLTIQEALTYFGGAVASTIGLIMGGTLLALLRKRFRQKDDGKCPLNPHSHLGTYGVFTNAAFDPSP
In words: Inhibitory activity against Selectin P expressed in endothelial cells.

Another test concerns the target T3, E-selectin (Homo sapiens, UniProt P16581).
T3 sequence (P16581 whole entry): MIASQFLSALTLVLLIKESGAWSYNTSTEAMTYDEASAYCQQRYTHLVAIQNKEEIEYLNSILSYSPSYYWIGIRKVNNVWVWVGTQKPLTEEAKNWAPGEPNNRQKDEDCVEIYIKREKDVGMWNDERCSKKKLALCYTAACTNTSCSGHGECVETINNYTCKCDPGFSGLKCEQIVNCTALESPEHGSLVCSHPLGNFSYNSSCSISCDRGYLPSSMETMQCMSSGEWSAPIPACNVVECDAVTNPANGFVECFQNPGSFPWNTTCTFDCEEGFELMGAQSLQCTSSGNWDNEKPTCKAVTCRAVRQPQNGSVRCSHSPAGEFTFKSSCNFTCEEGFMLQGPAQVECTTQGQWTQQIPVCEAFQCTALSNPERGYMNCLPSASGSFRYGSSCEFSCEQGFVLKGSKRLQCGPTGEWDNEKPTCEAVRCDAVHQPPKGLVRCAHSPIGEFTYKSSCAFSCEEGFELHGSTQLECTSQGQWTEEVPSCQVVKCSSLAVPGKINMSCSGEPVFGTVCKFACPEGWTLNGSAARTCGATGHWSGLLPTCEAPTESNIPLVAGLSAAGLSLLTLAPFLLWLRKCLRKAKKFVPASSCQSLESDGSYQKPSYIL
Kind of test: Inhibitory activity against E-selectin expressed in endothelial cells.

One may read the IC50 as the midpoint of a concentration-inhibition curve. High values mean a need for much substance, low ones inhibition by little substance. Regarding `CCCCCCCCCCCCCCC(CCCCCCCCCCCCCC)CO[C@@H]1O[C@H](CO)[C@@H](O[C@@H]2O[C@H](CO)[C@H](O)[C@H](OS(=O)(=O)O)[C@H]2O)[C@H](O[C@@H]2O[C@@H](C)[C@@H](O)[C@@H](O)[C@@H]2O)[C@H]1O`, the results for the IC50 at L-selectin, against P-selectin and on E-selectin were 30 µM, 100 µM and 280 µM, respectively.
The like results for `CC(=O)N[C@H]1[C@H]([C@H](O)[C@H](O)CO)O[C@@](O[C@@H]2[C@H](O)[C@H](O[C@H]3[C@H](O[C@@H]4O[C@@H](C)[C@@H](O)[C@H](O)[C@@H]4O)[C@H](NC(C)=O)C(O)O[C@H]3CO)O[C@@H](CO)[C@@H]2O)(C(=O)O)C[C@H]1O` (some centres undefined) were, in that order, more than 1000 µM, more than 1000 µM and 600 µM.
For `C[C@@H]1O[C@@H](O[C@@H]2[C@H](O)[C@H](O)O[C@@H](CO)[C@H]2O[C@@H]2O[C@@H](CO)[C@H](O)[C@H](OS(=O)(=O)O)[C@@H]2O)[C@@H](O)[C@@H](O)[C@@H]1O`, in that order: more than 1000 µM, 300 µM and more than 1000 µM.
